Data taken from publication PMC10452266, “Divergent Pharmacology and Biased Signaling of the Four Melanocortin-4 Receptor Isoforms in Rainbow Trout (Oncorhynchus mykiss)” (Biomolecules, 2023).
“Also recorded” adds a separate entry of the source.

Assays:
omMc4ra1 [1] = experiment: Ligand-binding assay (displacement of 125I-NDP-MSH), omMc4ra1; parameters: species or system rainbow trout (Oncorhynchus mykiss); settings: AgRP 10^-12 to 10^-7 M, MCL0020 and Ipsen 5i 10^-11 to 10^-6 M, ML00253764 10^-10 to 10^-5 M, transfected HEK293T cells
Method: (§1) Human Embryonic Kidney (HEK) 293T cells, provided by American Type Culture Collection (Manassas, VA, USA), were cultured as described previously. Cells were plated into 24-well or 6-well plates pre-coated with 0.1% gelatin and transfected with plasmids by the calcium phosphate precipitation method.
(§2) A binding assay was conducted as described previously. […].
(§3) Binding assays were used to investigate the binding properties of omMc4rs. […].  Figure 6 Ligand-binding properties of omMc4rs. […]. Data are expressed as % of hMC4R binding ± range from duplicate measurements within one experiment. The curves are representative of at least three independent experiments.

omMc4ra2 [2] = experiment: Ligand-binding assay (displacement of 125I-NDP-MSH), omMc4ra2; parameters: species or system rainbow trout (Oncorhynchus mykiss); settings: AgRP 10^-12 to 10^-7 M, MCL0020 and Ipsen 5i 10^-11 to 10^-6 M, ML00253764 10^-10 to 10^-5 M, transfected HEK293T cells
Method: as §1, §2, §3

omMc4rb1 [3] = experiment: Ligand-binding assay (displacement of 125I-NDP-MSH), omMc4rb1; parameters: species or system rainbow trout (Oncorhynchus mykiss); settings: AgRP 10^-12 to 10^-7 M, MCL0020 and Ipsen 5i 10^-11 to 10^-6 M, ML00253764 10^-10 to 10^-5 M, transfected HEK293T cells
Method: as §1, §2, §3

omMc4rb2 [4] = experiment: Ligand-binding assay (displacement of 125I-NDP-MSH), omMc4rb2; parameters: species or system rainbow trout (Oncorhynchus mykiss); settings: AgRP 10^-12 to 10^-7 M, MCL0020 and Ipsen 5i 10^-11 to 10^-6 M, ML00253764 10^-10 to 10^-5 M, transfected HEK293T cells
Method: as §1, §2, §3

omMc4ra1 [5] = experiment: Effect of antagonists on basal cAMP level, omMc4ra1; assay type: cell-based, rainbow trout (Oncorhynchus mykiss); settings: 10 nM AgRP, 1 μM MCL0020, 1 μM ML00253764 or 1 μM Ipsen 5i, 1 h, HEK293T, RIA, three independent experiments
Method: (§4) Cells were plated into 24-well or 6-well plates pre-coated with 0.1% gelatin and transfected with plasmids by the calcium phosphate precipitation method.
(§5) Intracellular cAMP levels were determined according to previous protocol.

omMc4ra2 [6] = experiment: Effect of antagonists on basal cAMP level, omMc4ra2; assay type: cell-based, rainbow trout (Oncorhynchus mykiss); settings: 10 nM AgRP, 1 μM MCL0020, 1 μM ML00253764 or 1 μM Ipsen 5i, 1 h, HEK293T, RIA, three independent experiments
Method: as §4, §5

omMc4rb1 [7] = experiment: Effect of antagonists on basal cAMP level, omMc4rb1; assay type: cell-based, rainbow trout (Oncorhynchus mykiss); settings: 10 nM AgRP, 1 μM MCL0020, 1 μM ML00253764 or 1 μM Ipsen 5i, 1 h, HEK293T, RIA, three independent experiments
Method: as §4, §5

omMc4rb2 [8] = experiment: Effect of antagonists on basal cAMP level, omMc4rb2; assay type: cell-based, rainbow trout (Oncorhynchus mykiss)
Method: as §4, §5

omMc4ra1 [9] = experiment: ERK1/2 phosphorylation assay, omMc4ra1; assay type: cell-based, rainbow trout (Oncorhynchus mykiss); settings: 1 μM α-MSH, 10 nM AgRP, 1 μM MCL0020, 1 μM Ipsen 5i or 1 μM ML00253764, 5 min, HEK293T, Western blot, at least three independent experiments
Method: as §1
(§6) HEK293T cells were transfected with omMC4Rs. Twenty-four hours after transfection, cells were washed twice and starved in media without serum for 24 h. […] Rabbit anti-pERK1/2 antibody (Catalog #4370, Cell Signaling, Beverly, MA, USA) and mouse anti-β-tubulin antibody (Developmental Studies Hybridoma Bank, University of Iowa, Iowa City, IA, USA) were used in this study. The bound antibodies were quantified using ImageJ 1.44 software (National Institute of Health, Bethesda, MD, USA).
(§7) Figure 9 ERK1/2 signaling properties of trout Mc4rs. (A) Immunoblots of pERK1/2 in cells expressing omMc4ra1, omMc4ra2, omMc4rb1, or omMc4rb2. HEK293T cells were transiently transfected with omMc4ra1, omMc4ra2, omMc4rb1, omMc4rb2, or empty vector plasmids and were starved overnight 24 h after transfection. […] Western blots were performed as described in Materials and Methods. (B) Densitometry results of basal pERK1/2 levels of omMc4ra1, omMc4ra2, omMc4rb1, and omMc4rb2. (C) Densitometry results of pERK1/2 level of omMc4ra1. (D) Densitometry results of pERK1/2 level of omMc4ra2. […]

omMc4ra2 [10] = experiment: ERK1/2 phosphorylation assay, omMc4ra2; assay type: cell-based, rainbow trout (Oncorhynchus mykiss); settings: 1 μM α-MSH, 10 nM AgRP, 1 μM MCL0020, 1 μM Ipsen 5i or 1 μM ML00253764, 5 min, HEK293T, Western blot, at least three independent experiments
Method: as §1, §6, §7

omMc4rb1 [11] = experiment: ERK1/2 phosphorylation assay, omMc4rb1; assay type: cell-based, rainbow trout (Oncorhynchus mykiss)
Method: as §1, §6
Figure 9 ERK1/2 signaling properties of trout Mc4rs. (A) Immunoblots of pERK1/2 in cells expressing omMc4ra1, omMc4ra2, omMc4rb1, or omMc4rb2. HEK293T cells were transiently transfected with omMc4ra1, omMc4ra2, omMc4rb1, omMc4rb2, or empty vector plasmids and were starved overnight 24 h after transfection. […] Western blots were performed as described in Materials and Methods. (B) Densitometry results of basal pERK1/2 levels of omMc4ra1, omMc4ra2, omMc4rb1, and omMc4rb2. (C) Densitometry results of pERK1/2 level of omMc4ra1. (D) Densitometry results of pERK1/2 level of omMc4ra2. (E) Densitometry results of pERK1/2 level of omMc4rb1. (F) Densitometry results of pERK1/2 level of omMc4rb2.

omMc4rb2 [12] = experiment: ERK1/2 phosphorylation assay, omMc4rb2; assay type: cell-based, rainbow trout (Oncorhynchus mykiss); settings: 1 μM α-MSH, 10 nM AgRP, 1 μM MCL0020, 1 μM Ipsen 5i or 1 μM ML00253764, 5 min, HEK293T, Western blot, at least three independent experiments
Method: as §1, §6, §7

hMC4R [13] = biological target: T1, hMC4R (Homo sapiens, UniProt P32245); settings: cited from earlier work
T1 construct: expressed in transfected cells; host or cells: HEK293T
T1 sequence (P32245 whole entry): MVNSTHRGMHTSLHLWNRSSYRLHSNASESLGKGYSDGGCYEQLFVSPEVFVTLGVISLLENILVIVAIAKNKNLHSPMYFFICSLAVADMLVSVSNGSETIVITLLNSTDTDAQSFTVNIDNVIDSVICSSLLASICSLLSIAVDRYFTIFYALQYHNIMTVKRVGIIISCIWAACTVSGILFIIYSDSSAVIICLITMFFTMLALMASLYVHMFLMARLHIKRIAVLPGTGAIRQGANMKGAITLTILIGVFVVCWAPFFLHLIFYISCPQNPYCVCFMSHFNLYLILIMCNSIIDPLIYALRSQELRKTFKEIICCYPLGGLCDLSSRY

hMC4R [14] = biological target: T1, hMC4R; settings: ref [15],[51]; cited from earlier work
ciMc4r [15] = settings: stated as similar to trout Mc4rs, ref [15],[51]; cited from earlier work
saMc4r [16] = settings: stated as similar to trout Mc4rs, ref [15],[51]; cited from earlier work
ciMc4r [17] = settings: stated as similar to omMc4rs, ref [51]; cited from earlier work
Text: (§8) Numerous constitutively active mutants have been reported in several GPCRs, resulting in various human diseases, and inverse agonism will be vital for correcting the diseases caused by activating mutations in GPCRs. The constitutive activity of teleost Mc4r may have important physiological functions.

saMc4r [18] = settings: stated as similar to omMc4rs, ref [51]; cited from earlier work
Text: as §8

ricefield eel Mc4r [19] = tested on: ricefield eel Mc4r; parameters: method as in PMID 30075196, PMID 32615281; settings: stated as similar to trout Mc4rs, ref [15],[51]; cited from earlier work
ricefield eel Mc4r [20] = tested on: ricefield eel Mc4r; parameters: method as in PMID 30075196; settings: ref [15]; cited from earlier work
ciMc4r [21] = settings: ciMc4r (grass carp); ref [48],[51],[81]; cited from earlier work
Text: (§9) MC4R-mediated ERK1/2 signaling has a crucial role in the modulation of energy homeostasis. Although teleost Mc4rs have much higher basal activities in Gs-cAMP signaling, constitutive activation of ERK1/2 signaling is only observed in topmouth culter Mc4r but not in saMc4r and ciMc4r. […] Our data documented that these three compounds only activated ERK1/2 signaling of omMc4rb1 but not the other three omMc4rs (Figure 9).

hMC4R [22] = biological target: T1, hMC4R; settings: ref [48],[51],[81]; cited from earlier work
Text: as §9

saMc4r [23] = settings: saMc4r (spotted scat); ref [48],[51],[81]; cited from earlier work
Text: as §9

[24] = concluded from binding, cAMP and pERK1/2 results

COc1ccc(Br)cc1CCc1c(F)cccc1C1=NCCN1 [ML00253764, 2-[2-[2-(5-bromo-2-methoxyphenyl)-ethyl]-3-fluorophenyl]-4,5-dihydro-1H-imidazol]
displacement of 125I-NDP-MSH binding (omMc4ra1 [1]): could not displace | displacement of 125I-NDP-MSH binding (omMc4ra2 [2]): could not displace | displacement of 125I-NDP-MSH binding (omMc4rb1 [3]): could not displace | displacement of 125I-NDP-MSH binding (omMc4rb2 [4]): could not displace | effect on basal cAMP level (omMc4ra1 [5]): did not cause significant effects on the cAMP levels | effect on basal cAMP level (omMc4ra2 [6]): did not cause significant effects on the cAMP levels | effect on basal cAMP level (omMc4rb1 [7]): did not cause significant effects on the cAMP levels | effect on basal cAMP level (omMc4rb2 [8]; 10 nM AgRP, 1 μM MCL0020, 1 μM ML00253764 or 1 μM Ipsen 5i, 1 h, HEK293T, RIA, three independent experiments): acted as an agonist for omMcrb2 and significantly increasing the cAMP levels; also recorded: did not cause significant effects on the cAMP levels; also recorded: could stimulate cAMP signaling | biased signaling, cAMP versus ERK1/2 (omMc4rb2 [8]; [24]): allosteric agonist for omMc4rb2, preferentially activating Gs-cAMP signaling | effect on ERK1/2 phosphorylation (omMc4ra1 [9]): not by ML00253764, Ipsen 5i, or MCL0020 | effect on ERK1/2 phosphorylation (omMc4ra2 [10]): no effect | effect on ERK1/2 phosphorylation (omMc4rb1 [11]; 1 μM α-MSH, 10 nM AgRP, 1 μM MCL0020, 1 μM Ipsen 5i or 1 μM ML00253764, 5 min, HEK293T, Western blot, at least three independent experiments): significantly increased | biased signaling, cAMP versus ERK1/2 (omMc4rb1 [11]; [24]): biased allosteric modulators for omMc4rb1 with selective activation on ERK1/2 signaling | effect on ERK1/2 phosphorylation (omMc4rb2 [12]): no effect | basal activities of WT and constitutively active MC4R mutants (hMC4R [13]; WT and mutants, ref [48],[51],[57],[58],[80]): decrease the basal activities | basal activity of hMC4R and constitutively active mutant hMC4Rs (hMC4R [13]; hMC4R and mutants, ref [1],[28],[48],[51]): reduced by inverse agonists | orthosteric binding (hMC4R [14]): bind to hMC4R orthosterically | orthosteric binding by displacing radiolabeled NDP-MSH (ciMc4r [15]): neither ML00253764 nor Ipsen 5i bound | orthosteric binding by displacing radiolabeled NDP-MSH (saMc4r [16]): neither ML00253764 nor Ipsen 5i bound | effect on cAMP levels (ciMc4r [17]): did not cause significant effects on the cAMP levels | effect on cAMP levels (saMc4r [18]): did not cause significant effects on the cAMP levels | orthosteric binding by displacing radiolabeled NDP-MSH (ricefield eel Mc4r [19]): neither ML00253764 nor Ipsen 5i bound | basal cAMP generation (ricefield eel Mc4r [20]): could decrease basal cAMP generation | biased signaling, Gs-cAMP versus ERK1/2 (ciMc4r [21]): preferred activation on ERK1/2 signaling | biased signaling, Gs-cAMP versus ERK1/2 (hMC4R [22]): preferred activation on ERK1/2 signaling | biased signaling, Gs-cAMP versus ERK1/2 (saMc4r [23]): preferred activation on ERK1/2 signaling
